The text below walks through data of patent US20060153936A1, “Flavonoid solubilizing agent and method of solubilizing flavonoid” (priority 2003, published 2006).

Read-outs that look alike come from different tables or passages of the source.

Series [1] is described as follows: Storage stability of baicalin supernatant at 10° C., visual examination (Example 1). In kind it is physicochemical. The settings on record: baicalin supernatant without additive, 95° C. 15 minutes, stored 10° C. one month. The procedure: Further, the supernatant was placed in a test tube and, after it was pasteurized by heating at 95° C. for 15 minutes, it was stored at 10° C. for one month to observe the formation of a precipitate by visual examination.

Series [2] is described as follows: Baicalin dissolution amount with solubilizing agent (Example 1). In kind it is physicochemical. To be noted: without additive; baicalin 100 mg in ultrapure water 10 mL; 80° C. one hour, equilibrated 10° C. 48 hours. The procedure:
Then, after the mixture was equilibrated at 10° C. for 48 hours, the supernatant was collected by centrifugation. The OD254 of the supernatant was measured and the dissolution amount of baicalin was calculated by the following equation 1. baicalin dissolution amount (mg/100 mL)=(OD254 in sample supernatant−OD254 in control supernatant)/baicalin specific absorbance×1000

A short description of series [3]: Storage stability of hesperidin supernatant at 10° C., visual examination (Example 3). The format is physicochemical. The settings on record: hesperidin supernatant without additive, 95° C. 15 minutes, stored 10° C. one month. The procedure:
(§1) Further, the supernatant was placed in a test tube, and after it was pasteurized by heating at 95° C. for 15 minutes, it was stored at 10° C. for one month to observe the formation of a precipitate by visual examination.

The nature of series [4]: Hesperidin dissolution amount with solubilizing agent (Example 3). The settings on record: without additive; hesperidin 100 mg in ultrapure water 10 mL; 80° C. one hour, equilibrated 10° C. 48 hours. The format is physicochemical. On the procedure:
Then, after it was equilibrated at 10° C. for 48 hours, the supernatant was collected by centrifugation. The OD254 of the supernatant was measured and a hesperidin dissolution amount was calculated by the following equation 3. hesperidin dissolution amount (mg/100 mL)=(OD254 in sample supernatant−OD254 in control supernatant)/hesperidin specific absorbance×1000

Series [5] is classed as physicochemical. The procedure:
(§2) Ultrapure water 1 mL was added to a commercially available soybean isoflavone (trade name “Honen Isoflavone-80”, manufactured by Honen Corporation) 12.5 mg (10 mg of isoflavone glycoside) and a commercially available malonyl isoflavone glycoside, malonyl daidzin (purity: 90% or more, manufactured by Wako Pure Chemicals, Co., Ltd.) 1 mg, and the mixture was stirred at 25° C. for one hour. Then, after it was equilibrated at 10° C. for 48 hours, the supernatant was collected by centrifugation and an isoflavone dissolution amount was measured by HPLC. Further, the supernatant was placed in a test tube, it was stored as such at 10° C. for one month to observe the formation of a precipitate by visual examination.

Series [6] is described as follows: Isoflavone dissolution amount by HPLC with malonyl daidzin (Example 6). In kind it is physicochemical. To be noted: for dissolution amount of malonyl daidzin itself: share of malonyl daidzin in the isoflavone amount of the supernatant, 10° C. The procedure:
as §2

Series [7] in a line: Naringin dissolution amount with solubilizing agent (Example 4). The format is physicochemical. To be noted: without additive; naringin 100 mg in ultrapure water 10 mL; 80° C. one hour, equilibrated 10° C. 48 hours. The procedure: Ultrapure water 10 mL was added to commercially available naringin (flavanones, purity: 95% or more, manufactured by Sigma Inc.) 100 mg and the same solubilizing agent as that used in Example 1, and the mixture was stirred at 80° C. for one hour. Then, after it was equilibrated at 10° C. for 48 hours, the supernatant was collected by centrifugation. The OD254 in the supernatant was measured and a naringin dissolution amount was calculated by the following equation 4. naringin dissolution amount (mg/100 mL)=(OD254 in sample supernatant−OD254 in control supernatant)/naringin specific absorbance×1000

Series [8] can be described thus: Storage stability of naringin supernatant at 10° C., visual examination (Example 4). To be noted: naringin supernatant without additive, 95° C. 15 minutes, stored 10° C. one month. The format is physicochemical. On the procedure: as §1
Series [9] is described as follows: Storage stability of rutin supernatant at 10° C., visual examination (Example 2). In kind it is physicochemical. To be noted: rutin supernatant without additive, 95° C. 15 minutes, stored 10° C. one month. The procedure: Further, the supernatant was placed in a test tube, after it was pasteurized by heating at 95° C. for 15 minutes, it was stored at 10° C. for one month to observe the formation of a precipitate by visual examination.

Consider `O=C(O)[C@H]1O[C@@H](Oc2cc3oc(-c4ccccc4)cc(=O)c3c(O)c2O)[C@H](O)[C@@H](O)[C@@H]1O` [Baicalin, baicalin], for which, in series [1], the “Storage stability (10° C.)” value was “precipitate”. In series [2], this molecule returned a Baicalin dissolution amount of 12.4 mg/100 mL.

Regarding `COc1ccc([C@@H]2CC(=O)c3c(O)cc(O[C@@H]4O[C@H](CO[C@@H]5O[C@@H](C)[C@H](O)[C@@H](O)[C@H]5O)[C@@H](O)[C@H](O)[C@H]4O)cc3O2)cc1O` [Hesperidin, hesperidin], the “Storage stability (10° C.)” value in [3] is “precipitate”. The molecule further had a Hesperidin dissolution amount in series [4] of 8.6 mg/100 mL.

Turning to `O=C(O)CC(=O)OC[C@H]1O[C@@H](Oc2ccc3c(=O)c(-c4ccc(O)cc4)coc3c2)[C@H](O)[C@@H](O)[C@@H]1O` [Malonyl daidzin, malonyl daidzin], the “Storage stability (10° C.)” value in series [5] is reported as “No precipitate”. Moreover, the Isoflavone amount in series [6] (Honen Isoflavone-80 12.5 mg + malonyl daidzin 1 mg in ultrapure water 1 mL, 25° C. one hour, equilibrated 10° C. 48 hours, HPLC, total including malonyl daidzin) is on record as 106.3 mg/100 mL. Moreover, in series [6] (in the co-presence of malonyl daidzin, malonyl daidzin's own amount deducted), the “solubilizing magnifying power of the isoflavone glycoside” value worked out at 2.9 fold. The “dissolution amount of malonyl daidzin itself” value in series [6] (HPLC) is reported as “(including 56.9 of mg/100 mL”; in [6] (HPLC, listed as malonyl daidzin), 56.9 mg/100 mL.

In series [7], `C[C@@H]1O[C@@H](O[C@H]2[C@H](Oc3cc(O)c4c(c3)O[C@H](c3ccc(O)cc3)CC4=O)O[C@H](CO)[C@@H](O)[C@@H]2O)[C@H](O)[C@H](O)[C@H]1O` [Naringin, naringin] had a Naringin dissolution amount of 68.0 mg/100 mL. The “Storage stability (10° C.)” value in series [8] was “precipitate”.

Take `C[C@@H]1O[C@@H](OC[C@H]2O[C@@H](Oc3c(-c4ccc(O)c(O)c4)oc4cc(O)cc(O)c4c3=O)[C@H](O)[C@@H](O)[C@@H]2O)[C@H](O)[C@H](O)[C@H]1O` [Rutin, rutin]: the “Storage stability (10° C.)” value in series [9] is listed as “precipitate”.
